Data on 2 sequences can be found in article PMC4861463, “A Molecular Switch Abrogates Glycoprotein 100 (gp100) T-cell Receptor (TCR) Targeting of a Human Melanoma Antigen” (The Journal of Biological Chemistry, 2016).

“Also recorded” adds a separate entry of the source. Bounds are passed on as bounds.

Test [1] has as its target PMEL17 TCR (TRAV21 TRBV7-3). In words: SPR affinity analysis of PMEL17 TCR binding to HLA-A*0201-peptide complexes. Further details: species or system Human. Particulars: SPR equilibrium analysis, triplicate; for PMEL17 TCR (TRAV21 TRBV7-3), affinity KD: biotinylated HLA-A*0201-peptide complex (500–600 RU) on streptavidin CM5 chip, 9–10 serial dilutions of soluble TCR.
The target of test [2] is gp100 TCR (TRAV17 TRBV19). Kind of test: SPR affinity analysis of gp100 TCR binding to HLA-A*0201-peptide complexes. Further details: species or system Human. Conditions: SPR equilibrium analysis, triplicate; for gp100 TCR (TRAV17 TRBV19), affinity KD: biotinylated HLA-A*0201-peptide complex (500–600 RU) on streptavidin CM5 chip, 9–10 serial dilutions of soluble TCR.
The subject of test [3] is gp100 TCR-transduced CD8+ T-cells. In words: MIP-1β production by ELISA after stimulation with peptide-pulsed T2 target cells. Format: cell-based, Human. Particulars: peptide titration; 6 × 10^4 T2 cells pulsed 1 h + 3 × 10^4 T-cells, overnight; ELISA of supernatant; duplicate; Fig. 6A.
For test [4] the test system is unchanged. Kind of test: 4-h 51Cr release cytotoxicity assay against peptide-pulsed T2 targets. Format: cell-based, Human. Conditions: 37 °C, effector/target ratio 5, 51Cr-labelled T2 cells, peptide titration, duplicate, Fig. 6B.
Test [5] concerns gp100-specific TCR-transfected human T-cells. Particulars: cited from earlier work. From the text: Thus, in order to study the individual contribution of the peptide residues invo ... || We also provide insight into the role of each residue in gp100^280–288 during TCR recognition by performing an alanine scan mutagenesis with two different gp100^280–288-specific αβTCRs. […] These observations are consisten ...

With YLAPGPVTA [YLE-3A], the “PMEL17 TCR (TRAV21 TRBV7-3), affinity KD” value in test [1] is given as “complete absence of measurable binding; also recorded: No binding”; in test [1] (listed as A2-YLE-3A), “completely abrogated binding”. Further, the “gp100 TCR (TRAV17 TRBV19), affinity KD” value in test [2] is reported as “No binding”; in test [2] (listed as A2-YLE-3A), “completely abrogated binding”. Further, in test [3], the MIP-1β production result is recorded as “No MIP-1β production”. The “specific lysis of peptide-pulsed target cells” value in test [4] was “no cytotoxic T lymphocyte-mediated lysis”. The “agonist activity for a different gp100-specific TCR” value in test [5] was “null agonist”.

With YLEPAPVTA [YLE-5A], the Kd (commonly the free concentration of one partner at which half of the binding sites on the other are occupied at equilibrium, for simple one-to-one binding) in test [1] (read-out: PMEL17 TCR (TRAV21 TRBV7-3), affinity KD, biotinylated HLA-A*0201-peptide complex on streptavidin CM5 chip) was over 1000 µM; in test [2] (read-out: gp100 TCR (TRAV17 TRBV19), affinity KD, biotinylated HLA-A*0201-peptide complex on streptavidin CM5 chip), over 1000 µM. Besides, in test [3], the MIP-1β production result is listed as “No MIP-1β production”. In addition, the “specific lysis of peptide-pulsed target cells” value in test [4] is on record as “no cytotoxic T lymphocyte-mediated lysis”.
